Measured values: ChEMBL document CHEMBL4622904, “The discovery of azetidine-piperazine di-amides as potent, selective and reversible monoacylglycerol lipase (MAGL) inhibitors” (Bioorg Med Chem Lett, 2020)
Active and inactive are the calls of the source. No cut-off for these calls is given here.

Assays:
Trypsin (Homo sapiens) = Trypsin (Homo sapiens) (UniProt P07477+P07478+P35030); assay: Inhibition of trypsin (unknown origin) at 10 uM relative to control; format: protein assay
[1] = Clearance in dog at 10 mg/kg, po; format: ADME, organism-based, Canis lupus familiaris; settings: in vivo
[2] = Volume of distribution at steady state in rat at 10 mg/kg, po; format: ADME, organism-based; settings: in vivo
[3] = AUClast in monkey at 10 mg/kg, po; format: ADME, organism-based, Macaca mulatta; set-up: dose 10 mg/kg, time 0 - last, route oral; settings: rhesus monkey, in vivo
[4] = Oral bioavailability in rat at 10 mg/kg; format: ADME, organism-based; settings: in vivo
[5] = molecular target: Tissue-type plasminogen activator (Homo sapiens) (UniProt P00750); assay: Inhibition of TPA (unknown origin) at 10 uM relative to control
[6] = Tmax in monkey at 10 mg/kg, po; format: ADME, organism-based, Macaca mulatta; settings: rhesus monkey, in vivo
Rattus norvegicus [7] = assay: Effect on 2-AG level in brain of Sprague-Dawley rat 30 mg/kg, po (reference value: 11.96 nmol/g); format: functional
Cannabinoid receptor 2 = Cannabinoid receptor 2 (Homo sapiens, UniProt P34972); assay: Binding affinity to CB2 receptor (unknown origin); format: ADME
[8] = Volume of distribution at steady state in monkey at 10 mg/kg, po; format: ADME, organism-based, Macaca mulatta; settings: rhesus monkey, in vivo
[9] = Cmax in monkey at 10 mg/kg, po; format: ADME, organism-based, Macaca mulatta; set-up: dose 10 mg/kg, route oral; settings: rhesus monkey, in vivo
[10] = AUClast in rat at 10 mg/kg, po; format: ADME, organism-based; set-up: dose 10 mg/kg, route oral, time 0 - last; settings: in vivo
[11] = Drug concentration in blood of Sprague-Dawley rat at 3 mg/kg, po; format: ADME, organism-based; settings: in vivo, read-out: Ct
[12] = Oral bioavailability in dog at 10 mg/kg; format: ADME, organism-based, Canis lupus familiaris; settings: in vivo
[13] = molecular target: T1, Coagulation factor VII (Homo sapiens) (UniProt P08709); assay: Inhibition of factor 7a (unknown origin) at 10 uM relative to control
T1 sequence (whole entry): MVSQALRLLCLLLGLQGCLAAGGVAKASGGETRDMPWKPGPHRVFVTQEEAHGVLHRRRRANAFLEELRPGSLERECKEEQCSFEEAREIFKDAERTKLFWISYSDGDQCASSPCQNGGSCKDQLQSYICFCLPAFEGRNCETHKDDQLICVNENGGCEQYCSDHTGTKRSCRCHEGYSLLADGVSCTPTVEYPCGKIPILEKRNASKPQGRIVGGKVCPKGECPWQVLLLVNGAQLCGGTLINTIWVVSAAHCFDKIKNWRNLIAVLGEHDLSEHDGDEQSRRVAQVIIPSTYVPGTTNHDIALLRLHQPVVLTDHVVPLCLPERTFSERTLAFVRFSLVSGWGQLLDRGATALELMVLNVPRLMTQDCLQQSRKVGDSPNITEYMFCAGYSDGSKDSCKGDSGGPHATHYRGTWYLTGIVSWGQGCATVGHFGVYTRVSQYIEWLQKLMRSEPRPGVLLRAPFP

[14] = Half life in rat at 10 mg/kg, po; format: ADME, organism-based; settings: in vivo
[15] = Clearance in monkey at 10 mg/kg, po; format: ADME, organism-based, Macaca mulatta; settings: rhesus monkey, in vivo
[16] = Drug concentration in brain of Sprague-Dawley rat at 10 mg/kg, po; format: ADME, organism-based; settings: in vivo, read-out: Ct
[17] = Volume of distribution at steady state in dog at 10 mg/kg, po; format: ADME, organism-based, Canis lupus familiaris; settings: in vivo
[18] = molecular target: T2, Cathepsin G (Homo sapiens) (UniProt P08311); assay: Inhibition of cathepsin G (unknown origin) at 10 uM relative to control
T2 sequence (whole entry): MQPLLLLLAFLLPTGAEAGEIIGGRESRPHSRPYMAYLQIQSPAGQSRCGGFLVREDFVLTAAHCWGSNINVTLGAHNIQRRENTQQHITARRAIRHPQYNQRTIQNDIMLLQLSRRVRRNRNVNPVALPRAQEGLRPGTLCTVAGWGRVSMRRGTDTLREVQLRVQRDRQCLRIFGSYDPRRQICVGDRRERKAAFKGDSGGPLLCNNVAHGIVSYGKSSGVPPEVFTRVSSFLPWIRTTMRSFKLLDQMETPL

[19] = Half life in dog at 10 mg/kg, po; format: ADME, organism-based, Canis lupus familiaris; settings: in vivo
[20] = AUClast in dog at 10 mg/kg, po; format: ADME, organism-based, Canis lupus familiaris; set-up: dose 10 mg/kg, route oral, time 0 - last; settings: in vivo
[21] = molecular target: Prothrombin (Homo sapiens) (UniProt P00734); assay: Inhibition of thrombin (unknown origin) at 10 uM relative to control
Rattus norvegicus [22] = assay: Reversal of complete freund's adjuvant-induced thermal hyperalgesia in Sprague-Dawley rat model assessed as increase in paw withdrawal latency time at 1 to 30 mg/kg, po pre-exposed to thermal stimuli followed by CFA injection and subsequent compound administration measured after 30 to 180 mins; format: functional, organism-based
[23] = Drug concentration in blood of Sprague-Dawley rat at 1 mg/kg, po; format: ADME, organism-based; settings: in vivo, read-out: Ct
[24] = molecular target: Coagulation factor X (Homo sapiens) (UniProt P00742); assay: Inhibition of factor 10a (unknown origin) at 10 uM relative to control
[25] = Drug concentration in brain of Sprague-Dawley rat at 30 mg/kg, po; format: ADME, organism-based; settings: in vivo, read-out: Ct
[26] = Cmax in rat at 10 mg/kg, po; format: ADME, organism-based; set-up: dose 10 mg/kg, route oral; settings: in vivo

Sequence of Tissue-type plasminogen activator (Homo sapiens) (P00750 36-562 limits assumed): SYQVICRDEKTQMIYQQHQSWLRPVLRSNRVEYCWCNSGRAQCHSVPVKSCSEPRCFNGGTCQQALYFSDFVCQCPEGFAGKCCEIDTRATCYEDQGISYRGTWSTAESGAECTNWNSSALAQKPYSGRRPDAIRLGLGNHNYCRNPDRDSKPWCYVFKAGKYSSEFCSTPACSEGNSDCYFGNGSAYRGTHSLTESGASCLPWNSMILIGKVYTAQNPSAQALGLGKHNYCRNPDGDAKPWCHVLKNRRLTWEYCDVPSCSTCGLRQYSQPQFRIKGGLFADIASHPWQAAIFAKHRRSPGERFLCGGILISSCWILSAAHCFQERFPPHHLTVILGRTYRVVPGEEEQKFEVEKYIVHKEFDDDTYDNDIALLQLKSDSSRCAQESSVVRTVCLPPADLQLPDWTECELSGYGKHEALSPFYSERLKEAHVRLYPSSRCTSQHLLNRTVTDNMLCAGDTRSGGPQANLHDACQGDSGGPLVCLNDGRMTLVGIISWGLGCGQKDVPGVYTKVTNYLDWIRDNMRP
Sequence of Coagulation factor X (Homo sapiens) (P00742 41-179 limits assumed): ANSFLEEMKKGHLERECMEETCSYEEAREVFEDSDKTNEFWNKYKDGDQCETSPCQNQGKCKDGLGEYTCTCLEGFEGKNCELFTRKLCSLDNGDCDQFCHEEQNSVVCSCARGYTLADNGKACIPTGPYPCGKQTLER
Sequence of Coagulation factor X (Homo sapiens) (P00742 235-488 limits assumed): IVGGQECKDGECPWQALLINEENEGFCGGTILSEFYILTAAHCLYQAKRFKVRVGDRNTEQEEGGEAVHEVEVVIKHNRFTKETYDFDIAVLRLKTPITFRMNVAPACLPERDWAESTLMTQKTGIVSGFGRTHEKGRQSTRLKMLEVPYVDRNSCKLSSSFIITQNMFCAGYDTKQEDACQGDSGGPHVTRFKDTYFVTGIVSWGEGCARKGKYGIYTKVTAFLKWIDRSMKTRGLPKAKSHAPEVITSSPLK
Sequence of Cannabinoid receptor 2 (P34972 whole entry): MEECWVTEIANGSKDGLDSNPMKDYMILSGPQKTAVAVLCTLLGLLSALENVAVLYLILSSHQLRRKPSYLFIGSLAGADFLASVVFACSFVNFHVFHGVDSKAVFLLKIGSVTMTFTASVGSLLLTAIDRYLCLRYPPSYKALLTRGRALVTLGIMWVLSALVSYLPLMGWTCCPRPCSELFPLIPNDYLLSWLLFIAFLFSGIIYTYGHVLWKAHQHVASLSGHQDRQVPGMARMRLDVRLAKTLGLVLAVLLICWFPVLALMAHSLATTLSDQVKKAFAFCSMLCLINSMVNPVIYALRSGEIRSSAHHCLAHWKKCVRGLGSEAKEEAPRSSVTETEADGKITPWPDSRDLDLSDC

- inhibition (Trypsin (Homo sapiens)): -10%
- CL/F [1]: 4.35 mL/min/kg
- Vdss [2]: 1.22 L/kg
- AUC(0-t) [3]: 33500 ng·h/mL
- bioavailability [4]: 45%
- inhibition [5]: 6%
- Tmax [6]: 2.67 h
- IC50 (Cannabinoid receptor 2): > 10 µM
- Vdss [8]: 0.429 L/kg
- Cmax [9]: 5300 ng/mL
- AUC(0-t) [10]: 3730 ng·h/mL
- concentration [11]: 135 nM
- bioavailability [12]: 79%
- inhibition [13]: -5%
- half-life [14]: 6.82 h
- CL/F [15]: 4.46 mL/min/kg
- concentration [16]: 668 nM
- Vdss [17]: 0.56 L/kg
- inhibition [18]: 13%
- half-life [19]: 7.46 h
- AUC(0-t) [20]: 33600 ng·h/mL
- inhibition [21]: -1%
- concentration [23]: 24.9 nM
- inhibition [24]: 0%
- concentration [25]: 3540 nM
- Cmax [26]: 710 ng/mL
Compound: O=C(c1ccc2c(ccn2-c2ccc(F)cc2)c1)N1CC(N2CCN(C(=O)c3nccs3)CC2)C1
- Activity (Rattus norvegicus [7]): 108.4 nmol/g
- Activity (Rattus norvegicus [22]): Active
